Key:
neuroblastoma lines = test: nuclear chemotherapy with 77BrdC on neuroblastoma lines; format: cell-based; conditions: ten neuroblastoma lines tested; H4U blockage
Description: An investigation of a method called “nuclear chemotherapy” was done many years previously at Sloan-Kettering Research Institute in New York, by Dr. Chia-Gee Wang and Dr. Lawrence Helson. The research was done using ^77BrdC, where ^77Br (half-life at 57 hours) would undergo a K-capture and deliver 10^6 or more Gy at a small distance. The […] of BrdC to BrdU can be blocked by the non-toxic H4U and therefore excluding BrdC from being incorporated into the DNA pool. Certain transformed cells, on the other hand, would make use of a more primitive kinase to bypass the H4U blockage, and incorporate BrdC to form BrdU. The ^77Br was made by adding an α particle to ^75As in a facility in the U.K. ^77Br was obtained in liquid solution, and ^77BrdC was made. […] The cells simply stopped mitosis while continuing most of the cellular functions. The Auger electrons from the ^77BrdU delivered such a high dose of the DNA duplex that no cellular repair was possible.

mice = conditions: cited from earlier work
cells = conditions: cited from earlier work

Compound: Nc1nc(=O)n([C@H]2C[C@H](O)[C@@H](CO)O2)cc1[77Br] [^77BrdC]
- sensitivity of neuroblastoma lines (neuroblastoma lines): two of the ten lines were sensitive

Compound: O=C([O-])CN(CCN(CC(=O)[O-])CC(=O)O)CCN(CC(=O)[O-])CC(=O)O.[Gd+3] [Gd-DTPA]
- LD50 in mice (mice): ~10 mmol/kg

Compound: 7-DTPA-Paclitaxel
- retention of paclitaxel potency in the cells (cells): retain much of the paclitaxel potency
